Results as given in US20090259054A1, “Methods and Compositions for the Treatment of Angiogenesis and Macular Degeneration” (The Texas A&M University System, priority 2008, published 2009).
“Also recorded” adds a separate entry of the source.

What was measured:
[1] = 4 mg/kg GA, 1 treatment every two days; cited from earlier work
HUVEC cells [2] = assay: Transwell migration (invasion) assay; type: cell-based, human; conditions: 40 nM GA, 4 hours
Procedure: The transwell (Corning Incorporated, NY, USA) were coated with 0.1% gelatin (Sigma) for 30 minutes at 37° C. After washed the transwells three times with 1×PBS, the bottom chambers (600 μl) were filled with ECGM medium with 20% FBS supplemented with 4 ng/ml VEGF and the top chambers were seeded with 100 μl ECGM medium and HUVEC cells (4×10^4 cell/well). The top and bottom chambers contained the same series of concentrations of gambogic acid (GA). HUVEC cells were allowed to migrate for 4 hours at 37° C., 5% CO2. After the incubation, cells on the top surface of the membrane (nonmigrated) were scraped with a cotton swab. Cells on the bottom side of the membrane (migrated cells) were fixed with 4% paraformaldehyde for 20 minutes and washed three times with 1×PBS. The cells were stained by hematoxylin and eosin (hereinafter, H&E) staining and then destained with 1×PBS (pH 7.4). The membranes were left to air dry at room temperature for 30 minutes. Images were taken using an OLYMPUS inverted microscope and migrated cells were quantified by manual counting using high power fields (HPF, 200×). The invaded cells were calculated and percent inhibition was expressed using untreated wells as 100% (t-test, p<0.01).

PC3 cells = assay: Proliferation assay (CellTiter 96 Aqueous One); type: cell-based; conditions: Homo sapiens, PC-3; PC3 cancer cells; read-out: Concentration required to inhibit PC3 cell proliferation by 50%
Source text: (§1) HUVEC and PC3 cell proliferation assays with different concentrations of GA were followed according to the CellTiter 96 Aqueous One Solution Cell Proliferation Assay (Promega) and analyzed using a VERSAMAX microplate reader (Molecular Devices).

HUVEC cells [3] = assay: Proliferation assay (CellTiter 96 Aqueous One); type: cell-based; conditions: Homo sapiens, read-out: Concentration that inhibits HUVEC cell proliferation by 50%
Source text: as §1

VEGF Receptor 2 = molecular target: T1, VEGF Receptor 2 (Homo sapiens, UniProt P35968); assay: VEGF Receptor 2 inhibition assay (HTScan VEGF receptor 2 kinase assay kit); type: biochemical; conditions: 100 ng active VEGFR2
T1 construct: purchased Cell Signaling Technology
T1 sequence (P35968 789-1356 limits assumed): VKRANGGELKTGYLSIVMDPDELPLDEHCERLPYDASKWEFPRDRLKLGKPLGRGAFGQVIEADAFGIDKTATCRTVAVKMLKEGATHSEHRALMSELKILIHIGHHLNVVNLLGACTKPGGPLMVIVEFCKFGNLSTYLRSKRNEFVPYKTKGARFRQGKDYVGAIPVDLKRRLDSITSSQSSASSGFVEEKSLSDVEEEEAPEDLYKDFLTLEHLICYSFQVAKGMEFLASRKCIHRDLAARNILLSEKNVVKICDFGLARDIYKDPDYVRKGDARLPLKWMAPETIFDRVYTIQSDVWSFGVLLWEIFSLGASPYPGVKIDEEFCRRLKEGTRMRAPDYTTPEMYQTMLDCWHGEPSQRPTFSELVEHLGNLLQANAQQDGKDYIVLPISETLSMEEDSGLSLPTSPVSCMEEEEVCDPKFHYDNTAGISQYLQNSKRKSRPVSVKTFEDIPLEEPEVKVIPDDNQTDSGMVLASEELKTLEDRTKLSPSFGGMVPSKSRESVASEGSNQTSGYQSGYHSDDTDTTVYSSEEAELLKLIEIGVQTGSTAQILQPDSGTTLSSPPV
Procedure: (§2) After starvation in ECGM medium without serum overnight, HUVEC cells were washed with 1×PBS twice, followed with incubation in M199 medium. HUVEC cells were then treated with 1 nM of GA and/or 4 nM of VEGF for 5 minutes, then subjected to immunoprecipitation using anti-VEGFR2 antibody. Anti-phosphotyrosine antibody was used for the detection of phosphorylation of the tyrosine residue of VEGFR2. […] Reaction cocktail containing 100 ng of active VEGFR2 was incubated with different concentrations of GA for 5 minutes at room temperature. Substrate peptide cocktail was added to the pre-incubated reaction cocktail/GA compound. After incubation at room temperature for 30 minutes, stop buffer was added to halt the reaction. 25 μl of each reaction was then transferred with 75 μl dH2O per well into a 96-well streptavidin coated plate and incubated at room temperature for 60 minutes. […] The stop solution was added and the plate was detected at 405 nm. […]
12.5 μl of the 4× reaction cocktail containing 100 ng VEGF Receptor 2 (supplied from the HTScan® VEGF receptor 2 kinase assay kit, Cell Signaling Technology, USA) was incubated with 12.5 μl/tube of GA for 5 minutes at room temperature. […] The plate was then detected at 405 nm with VERSAMAX microplate reader (Molecular Devices). […]

VEGFR2 = molecular target: T2, VEGFR2 (Homo sapiens, UniProt P35968); assay: VEGFR2 tyrosine phosphorylation in VEGF stimulated HUVEC cells (immunoprecipitation, Western blotting); type: cell-based; conditions: 1 nM GA, 4 nM VEGF, 5 minutes
T2 construct: endogenous in cells; host or cells: HUVEC
T2 sequence (P35968 20-1356): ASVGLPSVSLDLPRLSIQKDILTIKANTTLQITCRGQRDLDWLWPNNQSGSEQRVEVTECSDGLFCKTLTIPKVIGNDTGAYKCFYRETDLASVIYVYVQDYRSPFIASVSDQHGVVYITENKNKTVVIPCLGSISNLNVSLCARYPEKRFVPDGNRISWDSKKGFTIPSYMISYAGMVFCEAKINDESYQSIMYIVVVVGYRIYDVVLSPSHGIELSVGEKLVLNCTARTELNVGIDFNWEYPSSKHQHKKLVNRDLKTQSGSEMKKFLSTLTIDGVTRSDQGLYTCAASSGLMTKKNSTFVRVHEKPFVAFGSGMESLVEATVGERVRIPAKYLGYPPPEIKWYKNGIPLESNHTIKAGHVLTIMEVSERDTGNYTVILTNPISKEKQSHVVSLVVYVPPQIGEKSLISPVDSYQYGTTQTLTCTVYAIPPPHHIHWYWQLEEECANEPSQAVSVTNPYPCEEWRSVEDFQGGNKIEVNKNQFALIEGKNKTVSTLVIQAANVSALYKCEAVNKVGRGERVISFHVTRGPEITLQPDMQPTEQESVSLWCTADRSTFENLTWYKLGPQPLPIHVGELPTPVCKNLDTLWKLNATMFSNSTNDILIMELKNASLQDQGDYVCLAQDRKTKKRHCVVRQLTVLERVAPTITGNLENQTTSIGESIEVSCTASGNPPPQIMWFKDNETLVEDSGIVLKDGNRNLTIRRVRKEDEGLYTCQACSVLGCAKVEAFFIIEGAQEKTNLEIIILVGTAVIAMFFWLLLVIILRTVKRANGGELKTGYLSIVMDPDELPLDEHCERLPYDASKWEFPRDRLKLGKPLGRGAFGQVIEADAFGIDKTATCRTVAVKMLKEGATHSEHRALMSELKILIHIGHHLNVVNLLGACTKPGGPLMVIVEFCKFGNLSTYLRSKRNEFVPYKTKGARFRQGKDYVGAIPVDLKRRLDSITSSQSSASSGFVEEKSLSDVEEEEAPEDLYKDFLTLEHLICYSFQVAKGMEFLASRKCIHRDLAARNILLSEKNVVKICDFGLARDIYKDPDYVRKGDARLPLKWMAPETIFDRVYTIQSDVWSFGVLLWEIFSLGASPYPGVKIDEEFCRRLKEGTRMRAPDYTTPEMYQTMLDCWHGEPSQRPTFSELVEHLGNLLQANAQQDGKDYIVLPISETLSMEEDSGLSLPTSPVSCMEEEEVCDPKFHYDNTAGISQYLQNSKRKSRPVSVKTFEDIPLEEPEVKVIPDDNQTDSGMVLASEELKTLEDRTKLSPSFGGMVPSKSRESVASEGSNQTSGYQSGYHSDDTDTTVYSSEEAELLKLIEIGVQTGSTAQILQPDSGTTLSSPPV
Procedure: as §2
VEGFR2 is the primary receptor in VEGF signaling pathway that regulates endothelial cell proliferation, migration, differentiation, tube formation, and angiogenesis. […] HUVEC cells were stimulated with VEGF; phosphorylation and activation of VEGFR2 was detected by immunoprecipitation with anti-VEGFR2 (Flk-1) antibody and by Western blotting with anti-pTyr-antibody for phosphorylation of VEGFR2.

CC(C)=CCC[C@]1(C)C=Cc2c(O)c3c(c(CC=C(C)C)c2O1)O[C@]12C(=C[C@@H]4C[C@H]1C(C)(C)O[C@@]2(C/C=C(/C)C(=O)O)C4=O)C3=O [GA, gambogic acid]
Toxicity of dosage [1]: non-toxic dosage
Invasion of HUVEC cells (transwell) (HUVEC cells [2]): inhibit almost all invasion activities
IC50 (PC3 cells): > 400 nM
IC50 (HUVEC cells [3]): 80 nM
IC50 (VEGF Receptor 2): 0.012 nM
Phosphorylation and activation of VEGFR2 in HUVEC cells (VEGFR2): dramatically inhibited the phosphorylation of VEGFR2; also recorded: strongly inhibited VEGFR2 kinase activity
